Data published in US20180213796A1, “PLANT DISEASE CONTROL COMPOSITION AND PLANT DISEASE CONTROL METHOD” (SUMITOMO CHEMICAL COMPANY, LIMITED, priority 2015, published 2018).

Tests used:
[1] = system: damping-off fungus (Rhizoctonia solani); assay: Test Example 14: corn seed treatment, pot test in soil mixed with damping-off fungus, control value; type: in vivo; conditions: corn seeds, 20 days after
Protocol: In a rotary seed treatment machine (trade name: HEGE11, manufactured by […]), corn seeds (variety: yellow dent corn) were treated by smearing treatment using a flowable formulation of the present bacterial strain as obtained in Formulation Example 19, metconazole flowable formulation (40.0% flowable formulation, trade name: Metolock Fungicide, Valent U.S.A. Corporation), a chemical liquid prepared by dissolving tebuconazole in acetone/Tween 20 (weight ratio=95:5) and diluting with water, a chemical liquid prepared by dissolving prothioconazole in acetone/Tween 20 (weight ratio=95:5) and diluting with water, a chemical liquid prepared by dissolving difenoconazole in acetone/Tween 20 (weight ratio=95:5) and diluting with water, a chemical liquid prepared by dissolving triticonazole in acetone/Tween 20 (weight ratio=95:5) and diluting with water, a chemical liquid prepared by dissolving triadimenol in acetone/Tween 20 (weight ratio=95:5) and diluting with water, a chemical liquid prepared by dissolving bromconazole in acetone/Tween 20 (weight ratio=95:5) and diluting with water, so that the soybean seeds retain the present bacterial strain and the compound in the amount shown in Table 4.
Cultivation was carried out in a greenhouse under irrigation (“treated compartment”). The plants were investigated 20 days after for the number of diseased plants, and the disease incidence was calculated by the following “Equation 1”. […] The plants were investigated 20 days after for the number of diseased plants, and the disease incidence was calculated by the following “Equation 1”. The control value of the treated compartment was calculated by the following equation “Equation 2”, based on the disease incidences of the treated compartment and the untreated compartment.
Disease incidence (%)=100×(number of diseased plant/total number of seeded seeds) Equation 1
Control value (%)=100×[(disease incidence in untreated compartment−disease incidence in treated compartment)/disease incidence in untreated compartment] Equation 2 […]

[2] = system: damping-off fungus (Rhizoctonia solani); assay: Test Example 15: soybean seed treatment, pot test in soil mixed with damping-off fungus, control value; type: in vivo; conditions: soybean seeds, 20 days after
Protocol: In a rotary seed treatment machine (trade name: HEGE11, manufactured by WINTERSTEIGER), soybean seeds (variety: “Hatayutaka”) were treated by smearing treatment using the flowable formulation of the present bacterial strain obtained in Formulation Example 19 and a chemical liquid wherein ipconazole was dissolved in acetone/Tween 20 (weight ratio=95:5) and diluted with water, so that the soybean seeds retain the present bacterial strain and the compound in the amount shown in Table 5.
Cultivation was carried out in a greenhouse under irrigation (“treated compartment”). The plants were investigated 20 days after for the number of diseased plants, and the disease incidence was calculated by the following “Equation 1”. Also, similar procedures were conducted using untreated soybean seeds, instead of the treated soybean seeds, as described above for the treated compartment (“untreated compartment”). The plants were investigated 20 days after for the number of diseased plants, and the disease incidence was calculated by the following “Equation 1”. The control value of the treated compartment was calculated by the following equation “Equation 2”, based on the disease incidences of the treated compartment and the untreated compartment.
Disease incidence (%)=100×(number of diseased plant/total number of seeded seeds) Equation 1 […]

[3] = compound alone 0.005 g/Kg seeds

Row | SMILES | Controlling Effect (control value) [1, 3] | Controlling Effect (control value) ([1]; compound alone 0.01 g/Kg seeds) | further results
1 | Clc1ccc(C2(Cn3cncn3)CC(Br)CO2)c(Cl)c1 (stereo not shown) [Bromconazole] | 17% | 33% | –
2 | CC1COC(Cn2cncn2)(c2ccc(Oc3ccc(Cl)cc3)cc2Cl)O1 (stereo not shown) [Difenoconazole] | 58% | – | Controlling Effect (control value) ([1]; compound alone 0.0025 g/Kg seeds): 33%
3 | CC(C)C1CCC(Cc2ccc(Cl)cc2)C1(O)Cn1cncn1 (stereo not shown) [Ipconazole] | – | – | Controlling Effect (control value) [2, 3]: 27%; Controlling Effect (control value) ([2]; compound alone 0.01 g/Kg seeds): 33%
4 | CC1(C)CCC(Cc2ccc(Cl)cc2)C1(O)Cn1cncn1 (stereo not shown) [Metconazole] | – | – | Controlling Effect (control value) ([1]; compound alone 0.0005 g/Kg seeds): 25%; Controlling Effect (control value) ([1]; compound alone 0.001 g/Kg seeds): 33%
5 | OC(Cc1ccccc1Cl)(Cn1nc[nH]c1=S)C1(Cl)CC1 (stereo not shown) [Prothioconazole] | 42% | 50% | –
6 | CC(C)(C)C(O)(CCc1ccc(Cl)cc1)Cn1cncn1 (stereo not shown) [Tebuconazole] | – | 25% | Controlling Effect (control value) ([1]; compound alone 0.02 g/Kg seeds): 33%
7 | CC(C)(C)C(O)C(Oc1ccc(Cl)cc1)n1cncn1 (stereo not shown) [Triadimenol] | 33% | 42% | –
8 | CC1(C)CCC(=Cc2ccc(Cl)cc2)C1(O)Cn1cncn1 (stereo not shown) [Triticonazole] | 17% | 25% | –
